Source: patent publication US9029389B2 (Institut Pasteur Korea, priority 2011, dated 2015)
pIC50: −log10 of the molar value.

Target: T1, Human 5-lipoxygenase (Homo sapiens, UniProt P09917)
T1 construct: purchased Cayman 60402; host or cells: insect cells
T1 sequence (P09917 1-674): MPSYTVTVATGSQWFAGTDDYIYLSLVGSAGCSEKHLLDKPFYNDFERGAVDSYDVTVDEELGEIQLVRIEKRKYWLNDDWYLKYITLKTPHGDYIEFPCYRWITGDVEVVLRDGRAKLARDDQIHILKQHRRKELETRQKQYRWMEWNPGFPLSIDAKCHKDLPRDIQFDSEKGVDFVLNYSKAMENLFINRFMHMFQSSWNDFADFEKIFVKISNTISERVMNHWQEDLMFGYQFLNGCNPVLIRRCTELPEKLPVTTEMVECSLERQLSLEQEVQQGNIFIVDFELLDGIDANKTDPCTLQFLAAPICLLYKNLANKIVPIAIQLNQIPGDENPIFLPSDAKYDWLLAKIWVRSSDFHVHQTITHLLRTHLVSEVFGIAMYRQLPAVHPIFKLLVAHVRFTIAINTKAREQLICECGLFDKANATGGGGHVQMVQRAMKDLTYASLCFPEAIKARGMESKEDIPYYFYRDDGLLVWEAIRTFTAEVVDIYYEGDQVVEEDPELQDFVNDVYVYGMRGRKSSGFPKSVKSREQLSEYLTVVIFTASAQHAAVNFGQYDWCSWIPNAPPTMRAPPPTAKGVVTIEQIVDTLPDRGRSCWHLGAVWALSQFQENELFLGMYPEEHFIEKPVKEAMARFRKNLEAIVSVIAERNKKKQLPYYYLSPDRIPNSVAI
Experiment: Activity of compounds against 5-LO enzyme (LTB4 measurement and/or fluorescence method)
Format: biochemical
Details: for inhibition at 10 µM: 5-LO, single concentration of 10 uM in duplicate
Summary of the method: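 Insect-cell human 5-LO preincubated 15 min at RT with compound (pH 7.4, 2 mM CaCl2, 0.1 mM ATP, 1% DMSO), then 3 uM arachidonic acid for 5 min at 37 °C; LTB4 quantified by EIA and/or LC/MS/MS. Alternatively, fluorescence of 5-HpETE via H2DCFDA, 100 uM ATP, 3 uM arachidonic acid, 5 min, RT; single 10 uM screen then 6- or 11-point IC50.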

inhibition at 10 µM	pIC50 (6 or 11 point dose response in duplicate)	Compound
< 40%		CCc1nc2ccc(Cl)cn2c1C(=O)N1CCC(OCc2ccc(Cl)cc2)CC1 [compound 332, (6-chloro-2-ethylimidazo[1,2-a]pyridin-3-yl)(4-((4-chlorobenzyl)oxy)piperidin-1-yl)methanone]
< 40%		CCc1nc2ccc(Cl)cn2c1C(=O)N1CCC(OCc2ccc(F)cc2)CC1 [compound 333, (6-chloro-2-ethylimidazo[1,2-a]pyridin-3-yl)(4-((4-fluorobenzyl)oxy)piperidin-1-yl)methanone]
< 40%		CCc1nc2ccc(Cl)cn2c1C(=O)N1CCC(OCc2ccc(C(F)(F)F)cc2)CC1 [compound 334, (6-chloro-2-ethylimidazo[1,2-a]pyridin-3-yl)(4-((4-(trifluoromethyl)benzyl)oxy)piperidin-1-yl)methanone]
< 40%		CCc1nc2ccc(Cl)cn2c1C(=O)N1CCC(OCc2ccc(OC)cc2)CC1 [compound 335, (6-chloro-2-ethylimidazo[1,2-a]pyridin-3-yl)(4-((4-methoxybenzyl)oxy)piperidin-1-yl)methanone]
< 40%		CCc1nc2ccc(Cl)cn2c1C(=O)N1CCC(OCc2cccc(F)c2)CC1 [compound 336, (6-chloro-2-ethylimidazo[1,2-a]pyridin-3-yl)(4-((3-fluorobenzyl)oxy)piperidin-1-yl)methanone]
< 40%		CCc1nc2ccc(Cl)cn2c1C(=O)N1CCC(OCc2ccccc2F)CC1 [compound 337, (6-chloro-2-ethylimidazo[1,2-a]pyridin-3-yl)(4-((2-fluorobenzyl)oxy)piperidin-1-yl)methanone]
< 40%		CCc1nc2ccc(Cl)cn2c1CNCc1ccc(F)cc1 [compound 338, 1-(6-chloro-2-ethylimidazo[1,2-a]pyridin-3-yl)-N-(4-fluorobenzyl)methanamine]
< 40%		CCc1nc2ccc(Cl)cn2c1CNCc1ccc(N(C)C)cc1 [compound 339, 4-((((6-chloro-2-ethylimidazo[1,2-a]pyridin-3-yl)methyl)amino)methyl)-N,N-dimethylaniline]
< 40%		CCc1nc2ccc(Cl)cn2c1CNCc1ccc(N2CCC(O)CC2)cc1 [compound 340, 1-(4-((((6-chloro-2-ethylimidazo[1,2-a]pyridin-3-yl)methyl)amino)methyl)phenyl)piperidin-4-ol]
40 to 69%		CCc1nc2ccc(Cl)cn2c1CNCc1ccc(N2CCC(OCc3ccccc3)CC2)cc1 [compound 341, N-(4-(4-(benzyloxy)piperidin-1-yl)benzyl)-1-(6-chloro-2-ethylimidazo[1,2-a]pyridin-3-yl)methanamine]
< 40%		CCc1nc2ccc(Cl)cn2c1CNCCc1ccccn1 [compound 342, N-((6-chloro-2-ethylimidazo[1,2-a]pyridin-3-yl)methyl)-2-(pyridin-2-yl)ethanamine]
< 40%		CCc1nc2ccc(Cl)cn2c1CNCCc1cccnc1 [compound 343, N-((6-chloro-2-ethylimidazo[1,2-a]pyridin-3-yl)methyl)-2-(pyridin-3-yl)ethanamine]
< 40%		CCc1nc2ccc(Cl)cn2c1CNCCc1ccncc1 [compound 344, N-((6-chloro-2-ethylimidazo[1,2-a]pyridin-3-yl)methyl)-2-(pyridin-4-yl)ethanamine]
< 40%		CCc1nc2ccc(Cl)cn2c1CNC1CCN(Cc2ccccc2)C1 (centres unmarked) [compound 345, 1-Benzyl-N-((6-chloro-2-ethylimidazo[1,2-a]pyridin-3-yl)methyl)pyrrolidin-3-amine]
< 40%		CCc1nc2ccc(Cl)cn2c1CNCc1ccc(N2CCC3(CC2)OCCO3)cc1 [compound 346, N-(4-(1,4-dioxa-8-azaspiro[4.5]decan-8-yl)benzyl)-1-(6-chloro-2-ethylimidazo[1,2-a]pyridin-3-yl)methanamine]
> 69%		CCc1nc2ccc(Cl)cn2c1CN1CCC(OCc2ccc(OC(F)(F)F)cc2)CC1 [compound 347, 6-chloro-2-ethyl-3-((4-((4-(trifluoromethoxy)benzyl)oxy)piperidin-1-yl)methyl)imidazo[1,2-a]pyridine]
< 40%		CCc1nc2cc(Cl)ccn2c1-c1nnc(Cc2ccc(F)cc2)o1 [compound 348, 2-(7-chloro-2-ethylimidazo[1,2-a]pyridin-3-yl)-5-(4-fluorobenzyl)-1,3,4-oxadiazole]

More lines, now with the values behind:

Compound	inhibition at 10 µM	pIC50 (6 or 11 point dose response in duplicate)
CCc1nc2ccc(Cl)cn2c1C(=O)NCc1ccc(N2CCC(NC(=O)Cc3ccc(F)cc3)CC2)cc1 [compound 316, 6-chloro-2-ethyl-N-(4-(4-(2-(4-fluorophenyl)acetamido)piperidin-1-yl)benzyl)imidazo[1,2-a]pyridine-3-carboxamide]	< 40%	
CCc1nc2ccc(Cl)cn2c1C(=O)NCc1ccc(N2CCC(OCc3ccccc3)CC2)cc1 [compound 317, N-(4-(4-(benzyloxy)piperidin-1-yl)benzyl)-6-chloro-2-ethylimidazo[1,2-a]pyridine-3-carboxamide]	< 40%	
CCc1nc2ccc(Cl)cn2c1C(=O)NCc1ccc(N2CCC(NC(=O)c3ccc(F)cc3)CC2)cc1 [compound 318, 6-chloro-2-ethyl-N-(4-(4-(4-fluorobenzamido)piperidin-1-yl)benzyl)imidazo[1,2-a]pyridine-3-carboxamide]	< 40%	
CCc1nc2ccc(Cl)cn2c1C(=O)NCc1ccc(N2CCN(C(=O)c3ccc(F)cc3)CC2)cc1 [compound 319, 6-chloro-2-ethyl-N-(4-(4-(4-fluorobenzoyl)piperazin-1-yl)benzyl)imidazo[1,2-a]pyridine-3-carboxamide]	< 40%	
CCc1nc2ccc(Cl)cn2c1C(=O)NCc1ccc(N2CCN(C(=O)Cc3ccc(F)cc3)CC2)cc1 [compound 320, 6-chloro-2-ethyl-N-(4-(4-(2-(4-fluorophenyl)acetyl)piperazin-1-yl)benzyl)imidazo[1,2-a]pyridine-3-carboxamide]	< 40%	
CCc1nc2ccc(Cl)cn2c1C(=O)NCc1ccc(N2CCC(C)(O)CC2)cc1 [compound 321, 6-chloro-2-ethyl-N-(4-(4-hydroxy-4-methylpiperidin-1-yl)benzyl)imidazo[1,2-a]pyridine-3-carboxamide]	< 40%	
CCc1nc2ccc(Cl)cn2c1C(=O)NCc1ccc(N2CCC(O)(C(C)(C)C)CC2)cc1 [compound 322, N-(4-(4-(tert-butyl)-4-hydroxypiperidin-1-yl)benzyl)-6-chloro-2-ethylimidazo[1,2-a]pyridine-3-carboxamide]	< 40%	
CCc1nc2ccc(Cl)cn2c1C(=O)NCc1ccc(N2CCC(C(=O)c3ccc(F)cc3)CC2)cc1 [compound 323, 6-chloro-2-ethyl-N-(4-(4-(4-fluorobenzoyl)piperidin-1-yl)benzyl)imidazo[1,2-a]pyridine-3-carboxamide]	< 40%	
CCc1nc2ccc(Cl)cn2c1C(=O)NCc1ccc(N2CCC(C(=O)c3ccc(OC(F)(F)F)cc3)CC2)cc1 [compound 324, 6-chloro-2-ethyl-N-(4-(4-(4-(trifluoromethoxy)benzoyl)piperidin-1-yl)benzyl)imidazo[1,2-a]pyridine-3-carboxamide]	> 69%	
CCc1nc2ccc(Cl)cn2c1C(=O)NCc1ccc(N2CCC(C(=O)Cc3ccc(F)cc3)CC2)cc1 [compound 325, 6-chloro-2-ethyl-N-(4-(4-(2-(4-fluorophenyl)acetyl)piperidin-1-yl)benzyl)imidazo[1,2-a]pyridine-3-carboxamide]	< 40%	
CCc1nc2ccc(Cl)cn2c1C(=O)NCc1ccc(C2CCN(C(=O)c3ccc(F)cc3)CC2)cc1 [compound 326, 6-chloro-2-ethyl-N-(4-(1-(4-fluorobenzoyl)piperidin-4-yl)benzyl)imidazo[1,2-a]pyridine-3-carboxamide]	< 40%	
CCc1nc2ccc(Cl)cn2c1C(=O)NCc1ccc(N2CCC(O)(c3ccccc3)CC2)cc1 [compound 328, 6-chloro-2-ethyl-N-(4-(4-hydroxy-4-phenylpiperidin-1-yl)benzyl)imidazo[1,2-a]pyridine-3-carboxamide]	< 40%	
CCc1nc2ccc(Cl)cn2c1C(=O)NCc1ccc(/C=C/c2ccc(F)cc2)cc1 [compound 329, (E)-6-chloro-2-ethyl-N-(4-(4-fluorostyryl)benzyl)imidazo[1,2-a]pyridine-3-carboxamide]	< 40%	
CCc1nc2ccc(Cl)cn2c1C(=O)N1CCC(OCc2ccccc2)CC1 [compound 330, (4-(benzyloxy)piperidin-1-yl)(6-chloro-2-ethylimidazo[1,2-a]pyridin-3-yl)methanone]		< 4.70
CCc1nc2ccc(Cl)cn2c1C(=O)N1CCC(OCc2ccc(C)cc2)CC1 [compound 331, (6-chloro-2-ethylimidazo[1,2-a]pyridin-3-yl)(4-((4-methylbenzyl)oxy)piperidin-1-yl)methanone]	< 40%	
